Measured values published in ChEMBL document CHEMBL3638844, “Heterocyclic kinase inhibitors” (2014).

Assays:
[1] = biological target: Serine/threonine-protein kinase pim-1 (Homo sapiens, UniProt P11309); assay: ATP Depletion Assay: The activity of PIM1 is measured using a luciferase-luciferin based ATP detection reagent to quantify ATP depletion resulting from kinase-catalyzed phosphoryl transfer to a peptide substrate. Compounds to be tested are dissolved in 100% DMSO and directly distributed into white 384-well plates at 0.5 uA per well. To start the reaction, 10 ul of 5 nM Pim1 kinase and 80 uM BAD peptide (RSRHSSYPAGT-OH) in assay buffer (50 mM HEPES pH 7.5, 5 mM MgCl2, 1 mM DTT, 0.05% BSA) is added into each well. After 15 minutes, 10 ul of 40 uM ATP in assay buffer is added. Final assay concentrations are 2.5 nM PIM1, 20 uM ATP, 40 uM BAD peptide and 2.5% DMSO. The reaction is performed until approximately 50% of the ATP is depleted, then stopped with the addition of 20 ul KinaseGlo Plus (Promega Corporation) solution. The stopped reaction is incubated for 10 minutes and the remaining ATP detected via luminescence on the Victor2 (Perkin Elmer).
[2] = biological target: Serine/threonine-protein kinase pim-2 (Homo sapiens, UniProt Q9P1W9); assay: ATP Depletion Assay: The activity of PIM2 is measured using a luciferase-luciferin based ATP detection reagent to quantify ATP depletion resulting from kinase-catalyzed phosphoryl transfer to a peptide substrate. Compounds to be tested are dissolved in 100% DMSO and directly distributed into white 384-well plates at 0.5 ul per well. To start the reaction, 10 ul of 10 nM Pim2 kinase and 20 uM BAD peptide (RSRHSSYPAGT-OH) in assay buffer (50 mM HEPES pH 7.5, 5 mM MgCl2, 1 mM DTT, 0.05% BSA) is added into each well. After 15 minutes, 10 ul of 8 uM ATP in assay buffer is added. Final assay concentrations are 5 nM PIM2, 4 uM ATP, 10 uM BAD peptide and 2.5% DMSO. The reaction is performed until approximately 50% of the ATP is depleted, then stopped with the addition of 20 ul KinaseGlo Plus (Promega Corporation) solution. The stopped reaction is incubated for 10 minutes and the remaining ATP detected via luminescence on the Victor2 (Perkin Elmer).
[3] = biological target: Serine/threonine-protein kinase pim-3 (Homo sapiens, UniProt Q86V86); assay: ATP Depletion Assay: The activity of PIM3 is measured using a luciferase-luciferin based ATP detection reagent to quantify ATP depletion resulting from kinase-catalyzed phosphoryl transfer to a peptide substrate. Compounds to be tested are dissolved in 100% DMSO and directly distributed into white 384-well plates at 0.5 uA per well. To start the reaction, 10 ul of 10 nM Pim3 kinase and 200 uM BAD peptide (RSRHSSYPAGT-OH) in assay buffer (50 mM HEPES pH 7.5, 5 mM MgCl2, 1 mM DTT, 0.05% BSA) is added into each well. After 15 minutes, 10 ul of 80 uM ATP in assay buffer is added. Final assay concentrations are […], 40 uM ATP, 100 uM BAD peptide and 2.5% DMSO. The reaction is performed until approximately 50% of the ATP is depleted, then stopped by the addition of 20 ul KinaseGlo Plus (Promega Corporation) solution. The stopped reaction is incubated for 10 minutes and the remaining ATP detected via luminescence on the Victor2 (Perkin Elmer).

Serine/threonine-protein kinase pim-1, sequence (P11309 whole entry): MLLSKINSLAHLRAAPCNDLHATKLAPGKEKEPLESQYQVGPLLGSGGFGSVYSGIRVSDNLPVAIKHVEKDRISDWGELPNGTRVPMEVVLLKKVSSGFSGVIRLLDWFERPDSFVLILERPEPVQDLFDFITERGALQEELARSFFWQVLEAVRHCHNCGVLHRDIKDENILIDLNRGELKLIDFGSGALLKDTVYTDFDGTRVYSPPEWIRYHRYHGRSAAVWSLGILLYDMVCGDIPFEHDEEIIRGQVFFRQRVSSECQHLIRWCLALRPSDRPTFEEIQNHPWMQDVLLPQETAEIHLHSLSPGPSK
Serine/threonine-protein kinase pim-2, sequence (Q9P1W9 whole entry): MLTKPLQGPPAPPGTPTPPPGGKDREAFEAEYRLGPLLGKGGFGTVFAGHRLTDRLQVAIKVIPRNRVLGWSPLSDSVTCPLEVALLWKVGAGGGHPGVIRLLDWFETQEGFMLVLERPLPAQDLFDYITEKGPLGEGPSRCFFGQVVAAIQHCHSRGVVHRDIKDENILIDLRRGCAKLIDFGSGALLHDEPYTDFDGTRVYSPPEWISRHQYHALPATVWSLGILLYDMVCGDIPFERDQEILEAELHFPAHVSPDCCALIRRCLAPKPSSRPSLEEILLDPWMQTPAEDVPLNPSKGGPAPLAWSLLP

Compound: N[C@H]1C[C@@H](CO)CN(c2ccncc2Nc2cccc3ccc(-c4c(F)cccc4F)nc23)C1
- IC50 [1]: 796 nM
- IC50 [2]: 286 nM

Compound: N[C@H]1C[C@@H](O)CN(c2ccncc2Nc2cccc3ccc(-c4c(F)cccc4F)nc23)C1
- IC50 [3]: 61 nM
- IC50 [1]: 589 nM
- IC50 [2]: 512 nM
